These are literature values, as cited in patent publication US7625708B1 (priority 2005, dated 2009).

One data set relates to GDNF mRNA. Conditions: rat, in vivo.
Data set [1] has as its system Cytochrome P450 1A1 (CYP 1A1).
Data set [2] concerns Glutathion-S-Transferase (GST).
The test system of data set [3] is Aldehyde Dehydrogenase (ALDH).
The test system of data set [4] is NAD(P)H: Quinone Oxidoreductase I (NQO I).
For data set [5] the following is noted: rabbit, in vivo.

As for `c1ccc(C2(N3CCCCC3)CCCCC2)cc1` [phencyclidine], the “GDNF mRNA expression” value with GDNF mRNA is given as “GDNF mRNA expression increased in rats”. `O=c1cc(-c2ccccc2)oc2ccc3ccccc3c12` [β-naphthaoflavone]: the CYP1A1 activity result in data set [1] is reported as “showed increase CYP1A1 activity (cell”. On to `Cc1ccc2cc3c(ccc4ccccc43)c3c2c1CC3` [methylcholanthrene], for which the “induction of GST” value in data set [2] is reported as “showed induction of GST (cell culture)”. For the same molecule, the “induction of ALDH” value in data set [3] is “showed induction of ALDH (cell culture)”. For the same molecule, the “induction of NQO I” value in data set [4] is listed as “showed induction of NQO I (cell culture)”. Also, the CYP1A1 activity result in data set [1] is “showed increase CYP1A1 activity (cell”. Consider `CNC(=O)ON=C(C)SC` [methomyl], for which the “detection in the hair shaft” value in data set [5] is given as “could be detected”. `CCC1(c2ccccc2)C(=O)NC(=O)NC1=O` [phenobarbital]: the CYP1A1 activity entry in data set [1] is reported as “showed increase CYP1A1 activity (cell”.
